# Measured values reported in patent publication US20210024542A1 (Torcept Therapeutics, Inc., priority 2018, published 2021).
# Values joined by “and” are separate entries in the source; they are usually repeats but may differ in a detail not shown here. Identical values can stand only once.
# Key:
# [1] = mouse, in vivo, ip, 10 mg/kg
# Excerpt: (§1) Tumor growth was monitored daily. […] Significance was set at p≤0.05.
# [2] = Day 30, 10 mg/kg IP QD
# Excerpt: as §1
# U2OS = test: OncoPanel cell proliferation assay, U2OS; format: cell-based, human
# Protocol: Cells were seeded into 384-well plates and incubated in a humidified atmosphere of 5% CO2 at 37° C. Compounds were added the day following cell seeding. At the same time, a time zero untreated cell plate was generated. After a 3-day incubation period, cells were fixed and stained to allow fluorescence imaging of nuclei. Compounds (1 mM stock solutions) were serially diluted in half-log steps from the highest test concentration ([…]), and assayed over 10 concentrations with a maximum assay concentration of 0.1% DMSO. Automated fluorescence microscopy was carried out using a Molecular Devices ImageXpress Micro XL high-content imager, and images were collected with a 4× objective. 16-bit TIFF images were acquired and analyzed with MetaXpress 5.1.0.41 software.
# Cell proliferation was measured by the fluorescence intensity of an incorporated nuclear dye. The output is referred to as the relative cell count, where the measured nuclear intensity is transformed to percent of control (POC) using the following formula: […]
# Cellular response parameters were calculated using nonlinear regression to a sigmoidal single-site dose response model:
# Where y is a response measured at concentration x, A and B are the lower and upper limits of the response, C is the concentration at the response midpoint (EC50), and D is the Hill Slope (Ref. 1).
# GI50 is the concentration needed to reduce the observed growth by half (midway between the curve maximum and the time zero value). […] In rare instances, values <0 or >10 may be observed. […] Curve-fitting, calculations, and report generation was performed using a custom data reduction engine and MathIQ based software (AIM).
# [3] = Whole blood concentrations in mice after IP dosing (LC-MS/MS); format: in vivo
# Protocol: These determinations were made using protein precipitation, liquid chromatography (LC), and mass spectrometry (MS/MS). Ten μl aliquots of whole blood and matrix calibration standards were distributed in a 96-well plate; 10 μl aliquots of blank matrix for matrix blanks and control blanks were included as controls. Ten μl of water was added to each sample followed by vortexing. One hundred sixty […] of internal standard was added to each sample except the matrix blanks; 160 μl 70:30 water:acetonitrile (ACN) was added to matrix blanks. This was followed by a […]. One hundred fifty μl of the resultant supernatant was then transferred to a new 96-well plate and the samples blown to dryness at 35° C. The resultant product was then reconstituted with 90 μl ACN.
# [4] = 2 mg/kg IP QD x 3 days, Day 1, 1.00 hrs
# [5] = 2 mg/kg IP QD x 3 days, Day 1, 2.00 hrs
# [6] = 2 mg/kg IP QD x 3 days, Day 1, 6.00 hrs
# [7] = 2 mg/kg IP QD x 3 days, Day 1, 24.0 hrs
# [8] = 2 mg/kg IP QD x 3 days, Day 2, 1.00 hrs
# [9] = 2 mg/kg IP QD x 3 days, Day 2, 2.00 hrs
# [10] = 2 mg/kg IP QD x 3 days, Day 2, 6.00 hrs
# [11] = 2 mg/kg IP QD x 3 days, Day 2, 24.0 hrs
# [12] = 2 mg/kg IP QD x 3 days, Day 3, 1.00 hrs
# [13] = 2 mg/kg IP QD x 3 days, Day 3, 2.00 hrs
# [14] = 2 mg/kg IP QD x 3 days, Day 3, 6.00 hrs
# [15] = 2 mg/kg IP QD x 3 days, Day 3, 24.0 hrs
# [16] = 10 mg/kg IP QD x 3 days, Day 1, 1.00 hrs
# [17] = 10 mg/kg IP QD x 3 days, Day 1, 2.00 hrs
compound,measurement,setting,value
"CO[C@H]1C[C@@H]2CC[C@@H](C)[C@@](O)(O2)C(=O)C(=O)N2CCCC[C@H]2C(=O)O[C@H]([C@H](C)C[C@@H]2C[C@@H]3C[C@H]2C[C@H]3O)CC(=O)[C@H](C)/C=C(\C)[C@@H](O)[C@@H](OC)C(=O)[C@H](C)C[C@H](C)/C=C/C=C/C=C/1C [Formula I, 37R-hydroxynorbornylrapamycin]","Body Wt. % Δ from Baseline, Mean",[1],14.24%
same,"Body Wt. % Δ from Baseline, Median",[1],14.91%
same,Percent Survival,[2],100%
same,Relative cell count (%) Mean,U2OS; 1.00E+00 microM,50.8%
same,Relative cell count (%) Mean,U2OS; 1.00E−01 microM,48.5%
same,Relative cell count (%) Mean,U2OS; 1.00E−02 microM,51.4%
same,Relative cell count (%) Mean,U2OS; 1.00E−03 microM,69.9%
same,Relative cell count (%) Mean,U2OS; 1.01E−04 microM,86.1%
same,Relative cell count (%) Mean,U2OS; 3.16E−01 microM,43.2%
same,Relative cell count (%) Mean,U2OS; 3.17E−02 microM,47.8%
same,Relative cell count (%) Mean,U2OS; 3.17E−03 microM,62.6%
same,Relative cell count (%) Mean,U2OS; 3.18E−04 microM,75.4%
same,Relative cell count (%) Mean,U2OS; 3.18E−05 microM,95.3%
same,EC50,"U2OS; Homo sapiens, 72 h, 3-day incubation, read-out: Cell Count EC50",0.395 nM
same,GI50,"U2OS; Homo sapiens, 72 h, 3-day incubation, read-out: Cell Count GI50",2.76 nM
same,IC50,"U2OS; Homo sapiens, 72 h, 3-day incubation, read-out: Cell Count IC50",12.1 nM
same,Cell Count Activity Area,U2OS; scale 0-10,4.05
same,"Concentration in Mouse Whole Blood, Mean",[3]; [4],529 ng/mL
same,"Concentration in Mouse Whole Blood, individual animals 1-3",[3]; [4],519 ng/mL and 530 ng/mL and 537 ng/mL
same,"Concentration in Mouse Whole Blood, Mean",[3]; [5],431 ng/mL
same,"Concentration in Mouse Whole Blood, individual animals 1-3",[3]; [5],668 ng/mL and 392 ng/mL and 233 ng/mL
same,"Concentration in Mouse Whole Blood, Mean",[3]; [6],486 ng/mL
same,"Concentration in Mouse Whole Blood, individual animals 1-3",[3]; [6],468 ng/mL and 646 ng/mL and 344 ng/mL
same,"Concentration in Mouse Whole Blood, Mean",[3]; [7],36.6 ng/mL
same,"Concentration in Mouse Whole Blood, individual animals 1-3",[3]; [7],35.8 ng/mL and 48.0 ng/mL and 26.0 ng/mL
same,"Concentration in Mouse Whole Blood, Mean",[3]; [8],569 ng/mL
same,"Concentration in Mouse Whole Blood, individual animals 1-3",[3]; [8],682 ng/mL and 670 ng/mL and 354 ng/mL
same,"Concentration in Mouse Whole Blood, Mean",[3]; [9],814 ng/mL
same,"Concentration in Mouse Whole Blood, individual animals 1-3",[3]; [9],746 ng/mL and 841 ng/mL and 854 ng/mL
same,"Concentration in Mouse Whole Blood, Mean",[3]; [10],552 ng/mL
same,"Concentration in Mouse Whole Blood, individual animals 1-3",[3]; [10],537 ng/mL and 803 ng/mL and 315 ng/mL
same,"Concentration in Mouse Whole Blood, Mean",[3]; [11],47.8 ng/mL
same,"Concentration in Mouse Whole Blood, individual animals 1-3",[3]; [11],26.8 ng/mL and 76.5 ng/mL and 40.1 ng/mL
same,"Concentration in Mouse Whole Blood, Mean",[3]; [12],946 ng/mL
same,"Concentration in Mouse Whole Blood, individual animals 1-3",[3]; [12],968 ng/mL and 885 ng/mL and 986 ng/mL
same,"Concentration in Mouse Whole Blood, Mean",[3]; [13],583 ng/mL
same,"Concentration in Mouse Whole Blood, individual animals 1-3",[3]; [13],760 ng/mL and 707 ng/mL and 282 ng/mL
same,"Concentration in Mouse Whole Blood, Mean",[3]; [14],630 ng/mL
same,"Concentration in Mouse Whole Blood, individual animals 1-3",[3]; [14],560 ng/mL and 860 ng/mL and 469 ng/mL
same,"Concentration in Mouse Whole Blood, Mean",[3]; [15],62.5 ng/mL
same,"Concentration in Mouse Whole Blood, individual animals 1-3",[3]; [15],45.7 ng/mL and 92.2 ng/mL and 49.7 ng/mL
same,Concentrations in whole blood over time (in words),[3]; 2 mg/kg or 10 mg/kg IP QD for three days,sufficient concentrations in whole blood over time
same,"Concentration in Mouse Whole Blood, Mean",[3]; [16],778 ng/mL
same,"Concentration in Mouse Whole Blood, individual animals 4-6",[3]; [16],744 ng/mL and 736 ng/mL and 853 ng/mL
same,"Concentration in Mouse Whole Blood, Mean",[3]; [17],2340 ng/mL
same,"Concentration in Mouse Whole Blood, individual animals 4-6",[3]; [17],2390 ng/mL and 2040 ng/mL and 2590 ng/mL
